{
  "source": "paper PMC10294771",
  "about": "(Journal of Enzyme Inhibition and Medicinal Chemistry, 2023)",
  "tested_on": "HCT-116 cells",
  "experiment": "In vitro cytotoxicity assay",
  "type": "cell-based",
  "conditions": "Homo sapiens, HCT-116, 72 h, read-out: IC50, HCT-116 cell proliferation",
  "note": "pIC50: −log10 of the molar value.",
  "data": [
    {"smiles": "C[C@H](O)C(=O)N1CCC(CCn2c(Sc3cc4c(cc3Br)OCO4)nc3c(N)ncnc32)CC1", "note": "[MPC-3100, (2S)-1-[4-(2-{6-amino-8-[(6-bromo-1,3-benzodioxol-5-yl)sulfanyl]-9H-purin-9-yl}ethyl)piperidin-1-yl]-2-hydroxypropan-1-one]", "values": [
      {"measurement": "pIC50", "result": 6.11}
    ]}
  ]
}
